Data published in patent publication US5677324A, “Benzopyranes as potassium channel openers” (Pfizer Inc., priority 1993, dated 1997).

Test system: guinea pig tracheal ring preparations
Test: in vitro relaxation of guinea pig tracheal ring preparations (smooth muscle relaxant activity)
Assay type: cell-based
Conditions: Cavia porcellus; relaxation of KCl (20 mM)-contracted tracheal strips, Krebs solution, 37° C.; reversal to pretreatment base line = 100 percent relaxation
Text: The compounds of the formula (I) have smooth muscle relaxant activity since they are able to open potassium channels in such tissue. They can be tested for smooth muscle relaxant activity by a method involving measuring the in vitro relaxation of guinea pig tracheal ring preparations as follows:
Male guinea pigs (500-600 g) were killed by a blow to the head and exsanguinated. The trachea was removed, placed in Krebs solution and cleaned. The trachea was slit through the cartilage along it's longitudinal axis and strips consisting of four adjacent cartilage rings were prepared. The strips were each placed in a water-jacketed organ bath (37° C.) containing Krebs solution and tied to a force-displacementtransducer for the measurement of isometric tension responses. The tissues were equilibrated for 60 minutes under a resting load of 1 g and washed every 15 minutes before the start of each experiment.
The composition of the Krebs solution was as follows (millimoles):- NaCl (119); KCl (4.7); NaHCO3 (25); KH2 PO4 (1.2); MgSO4 (1.2); CaCl2 (2.5); glucose (11), and indomethacin (2.8 μM) was added to remove the influence of the endogenous prostanoids. The solution was gassed with 95% O2 /5% CO2 and the temperature was kept constant at 37° C.
After the equilibration period a priming dose of KCl (20 mM) was added to each tissue bath and after a further 20 minutes the tissue was washed. After a further 30 minutes KCl (20 mM) was added to contract each tissue. The relaxant action of a compound of the formula (I) was examined when the maintained contractile response had stabilized. The compounds can be added cumulatively (10^-8 -10^-5 […]) at 5 minute intervals.
The reversal to pretreatment base line was taken as 100 percent relaxation in these studies and concentration-relaxation curves were constructed in order to obtain IC50 values for potency.
A selection of the compounds of the preceding Examples was tested for smooth muscle relaxant activity by the method involving measuring the in vitro relaxation of guinea pig tracheal ring preparations as described on pages 31 and 32 of the description.

| SMILES | IC50 |
| --- | --- |
| Cn1nnnc1-c1ccc2c(c1)[C@@H](Oc1ccc(=O)[nH]n1)[C@](C)(O)C(C)(C)O2 [Example 3] | 150 nM |
| CCOC(=O)CCCCn1nnnc1-c1ccc2c(c1)[C@@H](Oc1ccc(O)nn1)[C@](C)(O)C(C)(C)O2 [Example 11, (3S,4R)-3,4-dihydro-6-(1-[4-ethoxycarbonylbut-1-yl]-1H-tetrazol-5-yl)-3-hydroxy-4-(3-hydroxypyridazin-6-yl)oxy-2,2,3-trimethyl-2H-benzo[b]pyran] | 120 nM |
| CC1(C)Oc2ccc(-c3nnnn3CCc3ccccc3)cc2C(Oc2ccc(=O)[nH]n2)C1(C)O (centres unmarked) [Example 7] | 440 nM |

More lines, now with the values ahead:

| IC50 | SMILES |
| --- | --- |
| 68 nM | Cn1nnnc1-c1ccc2c(c1)[C@@H](N1CCCCC1=O)[C@H](O)C(C)(C)O2 (relative stereo) [Example 36] |
| 40 nM | CC1(C)Oc2ccc(-c3nnnn3CCc3ccccc3)cc2[C@@H](N2CCCCC2=O)[C@@H]1O (relative stereo) [Example 35] |
